Structures are written as SMILES.

Sequence of cruzipain (P25779 123-467): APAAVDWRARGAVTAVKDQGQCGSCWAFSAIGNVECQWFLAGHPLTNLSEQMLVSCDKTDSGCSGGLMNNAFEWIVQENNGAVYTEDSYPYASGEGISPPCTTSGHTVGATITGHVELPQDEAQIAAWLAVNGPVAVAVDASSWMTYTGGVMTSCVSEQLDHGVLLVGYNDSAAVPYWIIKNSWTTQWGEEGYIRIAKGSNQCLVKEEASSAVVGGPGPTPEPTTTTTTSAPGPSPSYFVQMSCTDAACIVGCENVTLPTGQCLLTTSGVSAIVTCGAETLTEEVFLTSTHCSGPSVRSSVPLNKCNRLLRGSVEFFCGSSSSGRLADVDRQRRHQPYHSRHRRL

This assay concerns the target cruzipain (Trypanosoma cruzi, UniProt P25779). Kind of assay: biochemical. To be noted: 50 pM cruzipain, pH 5.5, 15 minutes preincubation, 2 μM Z-Phe-Arg-AMC substrate. As to the method:
The assay solutions were mixed and incubated for 15 minutes at room temperature prior to the addition of 2 μM of Z-Phe-Arg-AMC substrate. […] Percent of inhibition were calculated by fitting experimental values to standard mathematical model for dose response curve.
Regarding `Cn1cccc1-c1ccc([C@H](N[C@@H](CC(C)(C)F)C(=O)N[C@H](C#N)Cc2ccccc2)C(F)(F)F)cc1` [Example 35, (S)-4-Fluoro-4-methyl-2-{(S)-2,2,2-trifluoro-1-[4-(1-methyl-1H-pyrrol-2-yl)-phenyl]-ethylamino}-pentanoic acid ((S)-1-cyano-2-phenyl-ethyl)-amide], the half-maximal inhibitory concentration (IC50) (as a rule, the concentration that inhibits the measured activity by half) was 12.2 nM. For `CC(C)(F)C[C@H](N[C@@H](c1ccc(-c2ccc([C@@H](O)C(F)F)cc2)cc1)C(F)(F)F)C(=O)NC(C#N)Cc1ccc(C(F)(F)F)cc1F` (stereo partly drawn) [Example 37, (S)-2-{(S)-1-[4′-((R)-2,2-Difluoro-1-hydroxy-ethyl)-biphenyl-4-yl]-2,2,2-trifluoro-ethylamino}-4-fluoro-4-methyl-pentanoic acid [cyano-(2-fluoro-4-trifluoromethyl-benzyl)-methyl]-amide] the value was 9.3 nM; for `CC(C)(F)C[C@H](N[C@@H](c1ccc(-c2ccc(C3(C(N)=O)CC3)cc2)cc1)C(F)(F)F)C(=O)N[C@H](C#N)Cc1ccc(C#N)cc1F` [Example 38, 1-[4′-((S)-1-{(S)-1-[(S)-1-Cyano-2-(4-cyano-2-fluoro-phenyl)-ethylcarbamoyl]-3-fluoro-3-methyl-butylamino}-2,2,2-trifluoro-ethyl)-biphenyl-4-yl]-cyclopropanecarboxylic acid amide], 0.3 nM. For `CC(C)(F)C[C@H](N[C@@H](c1ccc(-c2ccc(-c3ccncc3)cc2)cc1)C(F)(F)F)C(=O)N[C@H](C#N)Cc1ccc(C#N)cc1F` [Example 39, (S)-4-Fluoro-4-methyl-2-[(S)-2,2,2-trifluoro-1-(4′-pyridin-4-yl-biphenyl-4-yl)-ethylamino]-pentanoic acid [(S)-1-cyano-2-(4-cyano-2-fluoro-phenyl)-ethyl]-amide] the value was 0.6 nM. For `CC(C)[C@H](N[C@@H](c1ccc(Br)cc1)C(F)(F)F)C(=O)N[C@H](C#N)Cc1ccccc1` [Example 40, (S)-2-[(S)-1-(4-Bromo-phenyl)-2,2,2-trifluoro-ethylamino]-N-((S)-1-cyano-2-phenyl-ethyl)-3-methyl-butyramide] the value was 10.5 nM; for `CC(C)(O)Cc1ccc(-c2ccc([C@H](N[C@@H](CC(C)(C)F)C(=O)N[C@H](C#N)Cc3ccc(C#N)cc3F)C(F)(F)F)cc2)cc1` [Example 42, (S)-4-Fluoro-4-methyl-2-{(S)-2,2,2-trifluoro-1-[4′-(2-hydroxy-2-methyl-propyl)-biphenyl-4-yl]-ethylamino}-pentanoic acid [(S)-1-cyano-2-(4-cyano-2-fluoro-phenyl)-ethyl]-amide], 0.9 nM. The compound `CC(C)(F)C[C@H](N[C@@H](c1ccc(-c2ccc(C3(C(=O)N4CCOCC4)CC3)cc2)cc1)C(F)(F)F)C(=O)N[C@H](C#N)Cc1ccc(C#N)cc1F` [Example 43, (S)-4-Fluoro-4-methyl-2-((S)-2,2,2-trifluoro-1-{4′-[1-(morpholine-4-carbonyl)-cyclopropyl]-biphenyl-4-yl}-ethylamino)-pentanoic acid [(S)-1-cyano-2-(4-cyano-2-fluoro-phenyl)-ethyl]-amide] showed a half-inhibitory concentration (IC50) of 0.35 nM. For `CC(C)(F)C[C@H](N[C@@H](c1ccc(Br)cc1)C(F)(F)F)C(=O)N[C@H](C#N)Cc1ccc(C#N)cc1F` [Example 44, (S)-2-[(S)-1-(4-Bromo-phenyl)-2,2,2-trifluoro-ethylamino]-4-fluoro-4-methyl-pentanoic acid [(S)-1-cyano-2-(4-cyano-2-fluoro-phenyl)-ethyl]-amide] the value was 9.4 nM; for `CC(C)(F)C[C@H](N[C@@H](c1ccc(-c2ccc(-c3cc[n+]([O-])cc3)cc2)cc1)C(F)(F)F)C(=O)N[C@H](C#N)Cc1ccccc1` [Example 45, (S)-4-Fluoro-4-methyl-2-{(S)-2,2,2-trifluoro-1-[4′-(1-oxy-pyridin-4-yl)-biphenyl-4-yl]-ethylamino}-pentanoic acid ((S)-1-cyano-2-phenyl-ethyl)-amide], 7.8 nM; for `CC(C)(F)C[C@H](N[C@@H](c1ccc(-c2ccc(S(C)(=O)=O)cc2)cc1)C(F)(F)F)C(=O)N[C@H](C#N)Cc1ccc(C(F)(F)F)cc1F` [Example 46, (S)-4-Fluoro-4-methyl-2-[(S)-2,2,2-trifluoro-1-(4′-methanesulfonyl-biphenyl-4-yl)-ethylamino]-pentanoic acid [(S)-cyano-(2-fluoro-4-trifluoromethyl-benzyl)-methyl]-amide], 1.5 nM. Regarding `CC(C)[C@H](N[C@@H](c1ccc(-c2ccc(N3CCNCC3)cc2)cc1)C(F)(F)F)C(=O)N[C@H](C#N)Cc1ccccc1` [Example 47, 4-[4′-((S)-1-{(S)-1-[((S)-Benzyl-cyano-methyl)-carbamoyl]-2-methyl-propylamino}-2,2,2-trifluoro-ethyl)-biphenyl-4-yl]-piperazin-1-ium; chloride], half-maximal inhibition (IC50) required 0.1 nM. On to `CC(C)[C@H](N[C@@H](c1ccc(-c2ccc(C3(C(N)=O)CC3)cc2)cc1)C(F)(F)F)C(=O)N[C@H](C#N)Cc1ccccc1` [Example 48, 1-[4′-((S)-1-{(S)-1-[((S)-Benzyl-cyano-methyl)-carbamoyl]-2-methyl-propylamino}-2,2,2-trifluoro-ethyl)-biphenyl-4-yl]-cyclopropanecarboxylic acid amide], for which the IC50 was determined as 0.7 nM. For `CC(C)[C@H](N[C@@H](c1ccc(-c2ccncc2)cc1)C(F)(F)F)C(=O)N[C@H](C#N)Cc1ccccc1` [Example 49, (S)-N-((S)-Benzyl-cyano-methyl)-3-methyl-2-[(S)-2,2,2-trifluoro-1-(4-pyridin-4-yl-phenyl)-ethylamino]-butyramide] the value was 5.6 nM; for `CC(C)[C@H](N[C@@H](c1ccc(-c2ccc([C@@H](O)C(F)F)cc2)cc1)C(F)(F)F)C(=O)N[C@H](C#N)Cc1ccccc1` [Example 50, (S)-N-((S)-Benzyl-cyano-methyl)-2-{(S)-1-[4′-((R)-2,2-difluoro-1-hydroxy-ethyl)-biphenyl-4-yl]-2,2,2-trifluoro-ethylamino}-3-methyl-butyramide], 3.2 nM.

The compound `CC(C)(F)C[C@H](N[C@@H](c1ccc(-c2ccc(C3(C(=O)NCCO)CC3)cc2)cc1)C(F)(F)F)C(=O)N[C@H](C#N)Cc1ccccc1` [Example 52, 1-[4′-((S)-1-{(S)-1-[((S)-Benzyl-cyano-methyl)-carbamoyl]-3-fluoro-3-methyl-butylamino}-2,2,2-trifluoro-ethyl)-biphenyl-4-yl]-cyclopropanecarboxylic acid (2-hydroxy-ethyl)-amide] gave an IC50 of 2.8 nM.

`COC(=O)CNC(=O)C1(c2ccc(-c3ccc([C@H](N[C@@H](CC(C)(C)F)C(=O)N[C@H](C#N)Cc4ccccc4)C(F)(F)F)cc3)cc2)CC1` [Example 53, ({1-[4′-((S)-1-{(S)-1-[((S)-Benzyl-cyano-methyl)-carbamoyl]-3-fluoro-3-methyl-butylamino}-2,2,2-trifluoro-ethyl)-biphenyl-4-yl]-cyclopropanecarbonyl}-amino)-acetic acid methyl ester] showed an IC50 of 3.1 nM. For `CC(C)(F)C[C@H](N[C@@H](c1ccc(-c2ccc(C3(C(=O)NCC(F)(F)F)CC3)cc2)cc1)C(F)(F)F)C(=O)N[C@H](C#N)Cc1ccccc1` [Example 54, 1-[4′-((S)-1-{(S)-1-[((S)-Benzyl-cyano-methyl)-carbamoyl]-3-fluoro-3-methyl-butylamino}-2,2,2-trifluoro-ethyl)-biphenyl-4-yl]-cyclopropanecarboxylic acid (2,2,2-trifluoro-ethyl)-amide] the value was 9.4 nM.

The record behind these values is US8642799B2, “Cysteine protease inhibitors for the treatment of parasitic diseases” (Merck Canada Inc., priority 2007, dated 2014).
